{"source": "patent US9393184B2", "about": "“Oxychlorine oral rinse composition having enhanced oral-tissue compatibility for the destruction of malodorants, their putrefactive microbial sources and gum-disease pathogens and a method for the preparation thereof” (ProFresh Properties Inc., priority 2013, dated 2016)", "origin": "cited, not measured here", "data": [{"smiles": "O=C(O)O", "note": "[carbonic acid]", "values": [{"measurement": "pKa", "value": 6.1}]}]}
